Where “and” joins values, the source holds several entries; their conditions need not be identical. Equal entries are not always repeated. Structures can show the parent of a compound that is named as a salt.
Key:
DDR1 kinase [1] = target: T1, DDR1 kinase (Homo sapiens, UniProt Q08345); assay: Evaluation of DDR1 kinase inhibition (LANCE Ultra TR-FRET kinase assay); type: biochemical; set-up: purchased Carna Biosciences 08-113; conditions: DDR1 protein 0.5 nM, LANCE Ultra ULight-poly GAT substrate, 2 hours at room temperature, duplicate; read-out: DDR-1 IC50
Target sequence in this assay (Q08345 19-876 isoform Q08345-2 limits assumed): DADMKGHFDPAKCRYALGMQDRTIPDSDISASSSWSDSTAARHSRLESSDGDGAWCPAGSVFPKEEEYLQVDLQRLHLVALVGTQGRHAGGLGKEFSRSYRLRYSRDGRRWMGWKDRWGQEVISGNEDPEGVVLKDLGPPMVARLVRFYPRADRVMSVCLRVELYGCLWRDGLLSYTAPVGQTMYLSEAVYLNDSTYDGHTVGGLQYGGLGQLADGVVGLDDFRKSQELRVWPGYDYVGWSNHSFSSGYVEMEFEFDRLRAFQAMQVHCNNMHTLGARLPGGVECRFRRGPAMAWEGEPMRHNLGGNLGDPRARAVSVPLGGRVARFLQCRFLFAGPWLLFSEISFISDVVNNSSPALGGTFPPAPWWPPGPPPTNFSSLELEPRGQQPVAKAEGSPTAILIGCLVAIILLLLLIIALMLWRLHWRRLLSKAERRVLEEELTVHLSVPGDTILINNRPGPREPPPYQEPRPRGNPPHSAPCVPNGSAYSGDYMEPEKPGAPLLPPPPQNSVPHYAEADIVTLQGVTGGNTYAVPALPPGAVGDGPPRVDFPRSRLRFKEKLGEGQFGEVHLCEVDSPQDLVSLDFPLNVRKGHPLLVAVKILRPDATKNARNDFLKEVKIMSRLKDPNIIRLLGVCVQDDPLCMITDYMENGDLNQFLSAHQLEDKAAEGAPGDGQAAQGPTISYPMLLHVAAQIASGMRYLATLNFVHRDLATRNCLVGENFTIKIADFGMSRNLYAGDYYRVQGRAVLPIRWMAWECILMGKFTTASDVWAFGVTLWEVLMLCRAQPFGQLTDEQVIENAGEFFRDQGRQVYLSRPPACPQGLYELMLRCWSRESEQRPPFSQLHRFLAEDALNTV

DDR1 kinase [2] = target: T1, DDR1 kinase; assay: Evaluation of DDR1 kinase inhibition in DDR1-expressing U2OS cells (type I collagen stimulation, PathHunter detection); type: cell-based; set-up: host or cells: U2OS; conditions: type I collagen 50 µg/mL stimulation, duplicate, read-out: DDR-1 IC50
Target sequence in this assay (Q08345 19-913): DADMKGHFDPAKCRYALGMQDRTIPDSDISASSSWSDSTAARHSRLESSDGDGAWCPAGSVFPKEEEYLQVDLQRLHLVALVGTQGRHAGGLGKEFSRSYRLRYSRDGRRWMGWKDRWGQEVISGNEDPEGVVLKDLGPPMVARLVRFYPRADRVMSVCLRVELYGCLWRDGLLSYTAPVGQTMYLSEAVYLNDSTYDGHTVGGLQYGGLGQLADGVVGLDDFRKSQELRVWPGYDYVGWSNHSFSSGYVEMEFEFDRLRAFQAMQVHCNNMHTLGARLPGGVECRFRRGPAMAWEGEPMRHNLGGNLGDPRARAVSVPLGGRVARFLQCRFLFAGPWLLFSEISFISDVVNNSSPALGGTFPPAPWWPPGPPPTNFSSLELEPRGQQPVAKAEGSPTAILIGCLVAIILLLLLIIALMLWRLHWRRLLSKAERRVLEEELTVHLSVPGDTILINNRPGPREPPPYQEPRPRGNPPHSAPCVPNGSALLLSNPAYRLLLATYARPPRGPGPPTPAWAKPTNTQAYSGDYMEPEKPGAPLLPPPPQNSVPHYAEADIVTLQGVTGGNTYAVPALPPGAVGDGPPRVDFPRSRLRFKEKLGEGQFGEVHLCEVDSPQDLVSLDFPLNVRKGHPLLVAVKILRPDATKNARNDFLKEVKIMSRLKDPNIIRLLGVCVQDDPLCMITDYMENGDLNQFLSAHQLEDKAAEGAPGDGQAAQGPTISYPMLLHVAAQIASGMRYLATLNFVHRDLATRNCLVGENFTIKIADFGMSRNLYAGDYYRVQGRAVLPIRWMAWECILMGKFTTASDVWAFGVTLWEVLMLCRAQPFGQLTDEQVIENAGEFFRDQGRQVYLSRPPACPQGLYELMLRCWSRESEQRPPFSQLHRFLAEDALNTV

SMILES	IC50 (DDR1 kinase [1]) [nM]	IC50 (DDR1 kinase [2])
Nc1cc(C(=O)N2CC(c3nn(Cc4ccc(C(F)(F)F)cc4)c4cccc(F)c34)C2)ccn1 [Compound E-112, 4-[3-(4-fluoro-1-{[4-(trifluoromethyl)phenyllmethyl}-1H-indazol-3-yl)azetidine-1-carbonyl]pyridin-2-amine hydrochloride]	3.7	170 nM
Nc1cc(C(=O)N2CC(c3nn(CC(=O)NCC(F)(F)F)c4ccc(F)c(Br)c34)C2)ccn1 [Compound E-70, 2-{3-[1-(2-aminopyridine-4-carbonyl)azetidin-3-yl]-4-bromo-5-fluoro-1H-indazol-1-yl}-N-(2,2,2-trifluoroethyl)acetamide hydrochloride]	1.7	120 nM
Nc1cc(C(=O)N2CC(c3nn(CC(=O)N4CCC(F)(F)CC4)c4ccccc34)C2)c(F)cn1 [Compound E-257, 2-{3-[1-(2-amino-5-fluoropyridine-4-carbonyl)azetidin-3-yl]-1H-indazol-1-yl}-1-(4,4-difluoropiperidin-1-yl)ethan-1-one]	13	42 nM
Cn1nccc1NC(=O)Cn1nc(C2CN(C(=O)c3cc(N)ncc3F)C2)c2ccccc21 [Compound E-247, 2-{3-[1-(2-amino-5-fluoropyridine-4-carbonyl)azetidin-8-yl]-1H-indazol-1-yl}-N-(1-methyl-1H-pyrazol-5-yl)acetamide]	47	300 nM
Cc1nc(N)sc1C(=O)N1CC(c2nn(CC(=O)N3CCCC3COC(F)(F)F)c3cncc(F)c23)C1 [Compound E-183, 2-{3-[1-(2-amino-4-methyl-1,3-thiazole-5-carbonylazetidin-3-yl)-4-fluoro-1H-pyrazolo[3,4-c]pyridin-1-yl}-1-[(2S)-2-[(trifluoromethoxy)methyl]pyrrolidin-1-yl]ethan-1-one p-toluenesulfonate]	8.8	500 nM
O=C(Cn1nc(C2CN(C(=O)c3ccnc4[nH]ccc34)C2)c2c(Cl)cccc21)NCC(F)(F)F [Compound E-61]	2.8	960 nM and 1600 nM
C[C@H](N(C)C(=O)Cn1nc(C2CN(C(=O)c3cc(N)ncc3F)C2)c2ccccc21)C(F)(F)F [Compound E-261, 2-{3-[1-(2-amino-5-fluoropyridine-4-carbonyl)azetidin-3-yl]-1H-indazol-1-yl}-N-methyl-N-[(2S)-1,1,1-trifluoropropan-2-yl]acetamide]	4.6	6 nM
Nc1cc(C(=O)N2CC(c3nn(CC(=O)NC4CCCC4(F)F)c4ccccc34)C2)ccn1 (stereo not shown) [Compound E-225, 2-{3-[1-(2-aminopyridine-4-carbonyl)azetidin-3-yl}-1H-indazol-1-yl}-N-(2,2-difluorocyclopentyl)acetamide]	17	450 nM
Nc1cc(C(=O)N2CCC(c3nn(CC(=O)N4CCC[C@H]4C(F)(F)F)c4cccc(F)c34)CC2)ccn1 [Compound E-81, 2-{3-[1-(2-aminopyridine-4-carbonyl)piperidin-4-yl]-4-fluoro-1H-indazol-1-yl}-1-[(28)-2-(trifluoromethyl)pyrrolidin-1-yl]ethan-1-one]	1.5	61 nM
COC[C@@H]1CCCN1C(=O)Cn1nc(C2CN(C(=O)c3ccnc(N)c3)C2)c2ccccc21 [Compound E-228, 2-{3-[1-(2-aminopyridine-4-carbonyl)azetidin-3-yl}-1H-indazol-1-yl}-1-[(2S)-2-(methoxymethyl)pyrrolidin-1-yl]ethan-1-one]	9	95 nM
C[C@@H](N(C)C(=O)Cn1nc(C2CN(C(=O)c3cc(N)ncc3F)C2)c2ccccc21)C(F)(F)F [Compound E-262, 2-{3-[1-(2-amino-5-fluoropyridine-4-carbonyl)azetidin-3-yl]-1H-indazol-1-yl}-N-methyl-N-[(2R)-1,1,1-trifluoropropan-2-yl]acetamide]	9.3	20 nM
O=C(c1cnn2ccsc12)N1CC(c2nn(CC(=O)N3CCC[C@H]3C(F)(F)F)c3cc(F)cc(F)c23)C1 [Compound E-102]	13	3300 nM
Cc1ccc2c(n1)c(C1CN(C(=O)c3cc(N)ncc3F)C1)nn2CC(=O)N1CCOC(C(F)(F)F)C1 [Compound E-185, 2-{3-[1-(2-amino-5-fluoropyridine-4-carbonyl)azetidin-3-yl]-5-methyl-1H-pyrazolo(4,3-blpyridin-1-yl}-1-[{(2R)-2-(trifluoromethyl)morpholin-4-yl]ethan-1-one p-toluenesulfonate]	22	3300 nM

Now from value to molecule:

IC50 (DDR1 kinase [1]) [nM]	IC50 (DDR1 kinase [2])	SMILES
12	400 nM	Cc1c(C(=O)N2CC(c3nn(CC(=O)N4CCO[C@@H](C(F)(F)F)C4)c4cc(F)cc(F)c34)C2)ccnc1N [Compound E-51, 2-{3-[1-(2-amino-3-methylpyridine-4-carbonyl)azetidin-3-yl]-4,6-difluoro-1H-indazol-1-yl}-1-[(2R)-2-(trifluoromethyl)morpholin-4-yl]ethan-1-one hydrochloride]
8.5	200 nM	O=C(c1ccnc(NC2CC2)c1)N1CC(c2nn(CC(=O)N3CCC[C@H]3C(F)(F)F)c3cc(F)cc(F)c23)C1 [Compound E-72, 2-(3-{1-[2-(cyclopropylamino)pyridine-4-carbonyl]azetidin-3-yl)-4,6-difluoro-1H-indazol-1-yl)-1-[(2S)-2-(trifluoromethyl)pyrrolidin-1 - yllethan-1-one hydrochloride]
21	1400 nM	O=C(c1ccnc(NC2CCOCC2)c1)N1CC(c2nn(CC(=O)N3CCC[C@H]3C(F)(F)F)c3cc(F)cc(F)c23)C1 [Compound E-88, 2-[4,6-difluoro-3-(1-{2-[(oxan-4-yl)amino]pyridine-4-carbonyl}azetidin-3-yl)-1H-indazol-1-yl]-1-[(2S)-2-(trifluoromethyl)pyrrolidin-1-yl]ethan-1-one]
100	1300 nM	Nc1cc(C(=O)N2CC(c3nn(CC(=O)N4CCCC4)c4cc(F)cc(F)c34)C2)ccn1 [Compound E-76, 2-{3-[1-(2-aminopyridine-4-carbonyl)azetidin-3-yl]-4,6-difluoro-1H-indazol-1-yl}-1-(pyrrolidin-1-yl)ethan-1-one]
3.2	150 nM	Nc1cc(C(=O)N2CC(c3nn(CC(=O)N4CCO[C@@H](C(F)(F)F)C4)c4cc(F)cc(F)c34)C2)c(F)cn1 [Compound E-42, 2-{3-[1-(2-amino-5-fluoropyridine-4-carbonyl)azetidin-3-yl]-4,6-difluoro-1H-indazol-1-yl)-1-[(2R)-2-(trifluoromethyl)morpholin-4-yl]ethan-1-one]
6.2	180 nM	Nc1cc(C(=O)N2CC(c3nn(CC(=O)N4CCC[C@H]4C(F)(F)F)c4cncc(F)c34)C2)ccn1 [Compound E-54, 2-{3-[1-(2-aminopyridine-4-carbonyl)azetidin-3-yl]-4-fluoro-1H-pyrazolo[3,4-c]pyridin-1-yl}-1-[(2S)-2-(trifluoromethyl)pyrrolidin-1-yl]ethan-1-one hydrochloride]
30	740 nM	Nc1cc(C(=O)N2CC(c3nn(CC(=O)NCC(F)F)c4cccc(F)c34)C2)ccn1 [Compound E-242, 2-{3-[1-(2-aminopyridine-4-carbonyl)azetidin-3-yl]-4-fluoro-1H-indazol-1-yl}-N-(2,2-difluoroethyl)acetamide]
